Laboratory results: patent publication US5624923A, “Tricyclic diazepine vasopressin antagonists and oxytocin antagonists” (priority 1995, dated 1997)

Legend:
Vasopressin V2 = Vasopressin V2 Antagonist Activity in Conscious Hydrated Rats; format: in vivo, rat; conditions: AVP 0.4 μg/kg i.p.
Protocol: Vasopressin V2 Antagonist Activity in Conscious Hydrated Rats
Conscious hydrated rats are treated with compounds under study from 0.1 to 100 mg/kg orally or vehicle. Two to four rats are used for each compound. One hour later, arginine vasopressin (AVP, antidiuretic hormore, ADH) dissolved in peanut oil is administered at 0.4 μg/kg intraperitoneally. Two rats in each test would not receive arginine vasopressin but only the vehicle (peanut oil) to serve as water-loading control. Twenty minutes later each rat is given 30 mL/kg of deionized water orally by gavage and is placed individually in a metabolic cage equipped with a funnel and a graduated glass cylinder to collect urine for four hours. Urine volume is measured and osmolality analyzed by use of a Fiske One-Ten osmometer (Fiske Assoc., Norwood, Mass., USA). Urinary sodium, potassium, and chloride are analyzed by use of ion-specific electrodes in a Beckman E3 (Electrolyte 3) Analyzer.

Vasopressin V1 = Vasopressin V1 Antagonist Activity in Conscious Rats (vasopressin vasopressor response); format: in vivo, rat; set-up: Average Change: unit not given here; conditions: for % Inhibition / Average Change: SHR
Method in brief: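 Conscious rats are restrained supine, and under local 2% procaine a PE 10/20 cannula is passed through the ventral caudal tail artery into the lower abdominal aorta. The caudal vein is cannulated for intravenous dosing. Blood pressure is recorded with a Statham P23Db transducer, and vasopressin injections are repeated after compound dosing. Percent antagonism is calculated against the pre-drug vasopressor response taken as 100%.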

Rat Hepatic V1 Receptors = target: T1, Rat Hepatic V1 Receptors (Rattus norvegicus, UniProt P30560); assay: Binding Assay to Rat Hepatic V1 Receptors; conditions: for IC50: rat liver membranes, read-out: V1 IC50
T1 construct: Rat liver plasma membranes expressing the vasopressin V1 receptor subtypes; from tissue; host or cells: rat liver plasma membranes

[1] = target: T2, Rat Kidney Medullary V2 Receptors (Rattus norvegicus, UniProt Q00788); assay: Binding Assay to Rat Kidney Medullary V2 Receptors; conditions: for IC50: rat kidney medulla membranes, read-out: V2 IC50
T2 construct: Medullary tissues from rat kidneys are dissected out; from tissue; host or cells: rat kidney medulla membranes
Method in brief: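 IC50 derived from competition curves; bound tritium counted by liquid scintillation after filtration. Rat medullary kidney membranes (Tris-HCl pH 7.4, BSA, PMSF) were incubated 120 min to equilibrium with radioligand and test compound (added in 50% DMSO). Nonspecific binding: 1.0 μM unlabeled ligand.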

[2] = 10 mg/kg i.v., VAS 0.01 i.u./kg, 30 min
[3] = 10 mg/kg i.v., VAS 0.01 i.u./kg, 60 min
[4] = 10 mg/kg i.v., VAS 0.01 i.u./kg, 90 min
[5] = 10 mg/kg i.v., VAS 0.01 i.u./kg, 120 min
[6] = 10 mg/kg i.v., VAS 0.01 i.u./kg, 180 min
[7] = 10 mg/kg i.v., VAS 0.01 i.u./kg, 240 min
[8] = 10 mg/kg i.v., VAS 0.01 i.u./kg, 300 min
[9] = 10 mg/kg i.v., VAS 0.02 i.u./kg, 30 min
[10] = 10 mg/kg i.v., VAS 0.02 i.u./kg, 60 min
[11] = 10 mg/kg i.v., VAS 0.02 i.u./kg, 90 min
[12] = 10 mg/kg i.v., VAS 0.02 i.u./kg, 120 min
[13] = 10 mg/kg i.v., VAS 0.02 i.u./kg, 180 min
[14] = 10 mg/kg i.v., VAS 0.02 i.u./kg, 240 min
[15] = 10 mg/kg i.v., VAS 0.02 i.u./kg, 300 min
[16] = 20 mg/kg i.v., VAS 0.01 i.u./kg, 60 min
[17] = 20 mg/kg i.v., VAS 0.01 i.u./kg, 90 min
[18] = 20 mg/kg i.v., VAS 0.01 i.u./kg, 120 min
[19] = 20 mg/kg i.v., VAS 0.01 i.u./kg, 180 min
[20] = 20 mg/kg i.v., VAS 0.01 i.u./kg, 240 min
[21] = 20 mg/kg i.v., VAS 0.01 i.u./kg, 300 min
[22] = 20 mg/kg i.v., VAS 0.02 i.u./kg, 60 min
[23] = 20 mg/kg i.v., VAS 0.02 i.u./kg, 90 min
[24] = 20 mg/kg i.v., VAS 0.02 i.u./kg, 120 min
[25] = 20 mg/kg i.v., VAS 0.02 i.u./kg, 180 min
[26] = 20 mg/kg i.v., VAS 0.02 i.u./kg, 240 min
[27] = 20 mg/kg i.v., VAS 0.02 i.u./kg, 300 min

T2 sequence (Q00788 whole entry): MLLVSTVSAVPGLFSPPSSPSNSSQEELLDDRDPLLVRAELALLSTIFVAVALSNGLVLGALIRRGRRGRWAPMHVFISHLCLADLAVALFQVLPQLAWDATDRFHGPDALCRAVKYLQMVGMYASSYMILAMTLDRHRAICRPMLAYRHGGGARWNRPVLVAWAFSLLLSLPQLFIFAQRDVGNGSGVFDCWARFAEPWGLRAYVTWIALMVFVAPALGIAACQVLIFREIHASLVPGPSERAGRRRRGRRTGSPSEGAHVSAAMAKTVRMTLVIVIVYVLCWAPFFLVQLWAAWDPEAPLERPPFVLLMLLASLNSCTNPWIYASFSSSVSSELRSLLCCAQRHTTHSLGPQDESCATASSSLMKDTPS
T1 sequence (P30560 whole entry): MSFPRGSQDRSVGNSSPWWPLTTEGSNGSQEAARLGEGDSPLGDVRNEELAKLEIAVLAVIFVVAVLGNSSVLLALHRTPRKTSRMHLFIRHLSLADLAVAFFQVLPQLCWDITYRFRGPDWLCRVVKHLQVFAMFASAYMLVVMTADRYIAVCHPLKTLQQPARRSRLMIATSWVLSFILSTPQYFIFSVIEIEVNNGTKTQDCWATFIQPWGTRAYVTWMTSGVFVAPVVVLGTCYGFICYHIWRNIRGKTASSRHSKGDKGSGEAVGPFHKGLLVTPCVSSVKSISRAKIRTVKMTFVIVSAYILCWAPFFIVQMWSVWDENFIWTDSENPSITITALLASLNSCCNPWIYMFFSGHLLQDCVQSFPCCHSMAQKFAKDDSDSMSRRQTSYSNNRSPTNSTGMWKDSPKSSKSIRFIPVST

Compound: O=C(Nc1ccc(C(=O)N2Cc3cccn3Cc3ccccc32)cc1)c1cccc(F)c1F [Example 1]
- Osmolality (Vasopressin V2; 30 mg/kg orally): 1504 mOsm/kg
- Urine Volume (Vasopressin V2; 30 mg/kg orally): 1.1 ml/4 hrs
- % Inhibition (Vasopressin V1; [2]): 88%
- Average Change (Vasopressin V1; [2]): 4
- % Inhibition (Vasopressin V1; [3]): 51%
- Average Change (Vasopressin V1; [3]): 16.5
- % Inhibition (Vasopressin V1; [4]): 37%
- Average Change (Vasopressin V1; [4]): 21
- % Inhibition (Vasopressin V1; [5]): 33%
- Average Change (Vasopressin V1; [5]): 22.5
- % Inhibition (Vasopressin V1; [6]): 13%
- Average Change (Vasopressin V1; [6]): 29
- % Inhibition (Vasopressin V1; [7]): 19%
- Average Change (Vasopressin V1; [7]): 27
- % Inhibition (Vasopressin V1; [8]): 4%
- Average Change (Vasopressin V1; [8]): 32
- % Inhibition (Vasopressin V1; [9]): 85%
- Average Change (Vasopressin V1; [9]): 8
- % Inhibition (Vasopressin V1; [10]): 62%
- Average Change (Vasopressin V1; [10]): 20
- % Inhibition (Vasopressin V1; [11]): 49%
- Average Change (Vasopressin V1; [11]): 27
- % Inhibition (Vasopressin V1; [12]): 29%
- Average Change (Vasopressin V1; [12]): 37.5
- % Inhibition (Vasopressin V1; [13]): 9%
- Average Change (Vasopressin V1; [13]): 48
- % Inhibition (Vasopressin V1; [14]): 25%
- Average Change (Vasopressin V1; [14]): 39.5
- % Inhibition (Vasopressin V1; [15]): 25%
- Average Change (Vasopressin V1; [15]): 39.5
- IC50 (Rat Hepatic V1 Receptors): 0.097 µM
- IC50 [1]: 0.029 µM

Compound: O=C(Nc1ccc(C(=O)N2Cc3cccn3Cc3ccccc32)cc1)c1ccc2[nH]ccc2c1 [Example 117, N-[4-(5H-pyrrolo[2,1-c][1,4]benzodiazepin-10(11H)-ylcarbonyl)phenyl]-1H-indole-5-carboxamide]
- % Inhibition (Vasopressin V1; [2]): 1%
- Average Change (Vasopressin V1; [2]): 36
- % Inhibition (Vasopressin V1; [9]): -12%
- Average Change (Vasopressin V1; [9]): 63
- % Inhibition (Vasopressin V1; [16]): 1%
- Average Change (Vasopressin V1; [16]): 36
- % Inhibition (Vasopressin V1; [17]): 38%
- Average Change (Vasopressin V1; [17]): 22.5
- % Inhibition (Vasopressin V1; [18]): 37%
- Average Change (Vasopressin V1; [18]): 23
- % Inhibition (Vasopressin V1; [19]): 27%
- Average Change (Vasopressin V1; [19]): 26.5
- % Inhibition (Vasopressin V1; [20]): 32%
- Average Change (Vasopressin V1; [20]): 25
- % Inhibition (Vasopressin V1; [21]): 29%
- Average Change (Vasopressin V1; [21]): 26
- % Inhibition (Vasopressin V1; [22]): 29%
- Average Change (Vasopressin V1; [22]): 40
- % Inhibition (Vasopressin V1; [23]): 19%
- Average Change (Vasopressin V1; [23]): 46
- % Inhibition (Vasopressin V1; [24]): 33%
- Average Change (Vasopressin V1; [24]): 38
- % Inhibition (Vasopressin V1; [25]): 19%
- Average Change (Vasopressin V1; [25]): 46
- % Inhibition (Vasopressin V1; [26]): 28%
- Average Change (Vasopressin V1; [26]): 40.5
- % Inhibition (Vasopressin V1; [27]): 25%
- Average Change (Vasopressin V1; [27]): 42.5
- IC50 (Rat Hepatic V1 Receptors): 2.77 µM
- IC50 [1]: 0.377 µM

Compound: Cc1ccccc1C(=O)Nc1ccc(C(=O)N2Cc3cccn3Cc3sccc32)cc1 [Example 267, N-[4-(5H-Pyrrolo[1,2-a]thieno[3,2-e][1,4]diazepin-4(10H)-ylcarbonyl)phenyl]-2-methylbenzamide]
- Max. % Inhibition (Vasopressin V1; 10 mg/kg i.v.): 56%
- Time (of max. % inhibition) (Vasopressin V1; 10 mg/kg i.v.): 60 min
- IC50 (Rat Hepatic V1 Receptors): 0.22 µM
- IC50 [1]: 0.028 µM

Compound: O=C(Nc1ccc(C(=O)N2Cc3cccn3Cc3ccccc32)cc1)C1CC=CCC1 (stereo not shown) [Example 354, N-[4-(5H-Pyrrolo[2,1-c][1,4]benzodiazepin-10(11)-ylcarbonyl)phenyl]-3-cyclohexenecarboxamide]
- Osmolality (Vasopressin V2; 10 mg/kg orally): 1010 mOsm/kg
- Urine Volume (Vasopressin V2; 10 mg/kg orally): 8.8 ml/4 hrs
- IC50 (Rat Hepatic V1 Receptors): 0.012 µM
- IC50 [1]: 0.007 µM

Compound: O=C(CC1CCCCC1)Nc1ccc(C(=O)N2Cc3cccn3Cc3ccccc32)cc1 [Example 356, N-[4-(5H-Pyrrolo[2,1-c][1,4]benzodiazepin-10(11)ylcarbonyl)phenyl]-cyclohexylacetamide]
- Osmolality (Vasopressin V2; 10 mg/kg orally): 1023 mOsm/kg
- Urine Volume (Vasopressin V2; 10 mg/kg orally): 5.8 ml/4 hrs
- IC50 (Rat Hepatic V1 Receptors): 0.087 µM
- IC50 [1]: 0.053 µM

Compound: O=C(Cc1ccccc1F)Nc1ccc(C(=O)N2Cc3cccn3Cc3ccccc32)cc1 [Example 357, N-[4-(5H-Pyrrolo[2,1-c][1,4]benzodiazepin-10(11)ylcarbonyl)phenyl]-2-fluorobenzeneacetamide]
- % Inhibition (Vasopressin V1; [2]): 60%
- Average Change (Vasopressin V1; [2]): 16.5
- % Inhibition (Vasopressin V1; [3]): 89%
- Average Change (Vasopressin V1; [3]): 4.5
- % Inhibition (Vasopressin V1; [4]): 80%
- Average Change (Vasopressin V1; [4]): 8
- % Inhibition (Vasopressin V1; [5]): 80%
- Average Change (Vasopressin V1; [5]): 8
- % Inhibition (Vasopressin V1; [6]): 77%
- Average Change (Vasopressin V1; [6]): 9.5
- % Inhibition (Vasopressin V1; [7]): 66%
- Average Change (Vasopressin V1; [7]): 14
- % Inhibition (Vasopressin V1; [8]): 61%
- Average Change (Vasopressin V1; [8]): 16
- % Inhibition (Vasopressin V1; [9]): 68%
- Average Change (Vasopressin V1; [9]): 16
- % Inhibition (Vasopressin V1; [10]): 79%
- Average Change (Vasopressin V1; [10]): 10.5
- % Inhibition (Vasopressin V1; [11]): 79%
- Average Change (Vasopressin V1; [11]): 10.5
- % Inhibition (Vasopressin V1; [12]): 88%
- Average Change (Vasopressin V1; [12]): 6
- % Inhibition (Vasopressin V1; [13]): 78%
- Average Change (Vasopressin V1; [13]): 11
- % Inhibition (Vasopressin V1; [14]): 71%
- Average Change (Vasopressin V1; [14]): 14.5
- % Inhibition (Vasopressin V1; [15]): 68%
- Average Change (Vasopressin V1; [15]): 16
- IC50 (Rat Hepatic V1 Receptors): 0.019 µM
- IC50 [1]: 0.017 µM

Compound: Cc1ccccc1C(=O)N(C)c1ccc(C(=O)N2Cc3cccn3Cc3ccccc32)cc1 [Example 384, N-[4-(5H-Pyrrolo[2,1-c][1,4]benzodiazepin-10(11H)-ylcarbonyl)phenyl]-N-methyl-2-methylbenzamide]
- % Inhibition (Vasopressin V1; [2]): 62%
- Average Change (Vasopressin V1; [2]): 9
- % Inhibition (Vasopressin V1; [3]): 62%
- Average Change (Vasopressin V1; [3]): 9
- % Inhibition (Vasopressin V1; [4]): 49%
- Average Change (Vasopressin V1; [4]): 12
- % Inhibition (Vasopressin V1; [5]): 55%
- Average Change (Vasopressin V1; [5]): 10.5
- % Inhibition (Vasopressin V1; [6]): 53%
- Average Change (Vasopressin V1; [6]): 11
- % Inhibition (Vasopressin V1; [7]): 53%
- Average Change (Vasopressin V1; [7]): 11
- % Inhibition (Vasopressin V1; [8]): 49%
- Average Change (Vasopressin V1; [8]): 12
- % Inhibition (Vasopressin V1; [9]): 61%
- Average Change (Vasopressin V1; [9]): 14.5
- % Inhibition (Vasopressin V1; [10]): 72%
- Average Change (Vasopressin V1; [10]): 10.5
- % Inhibition (Vasopressin V1; [11]): 58%
- Average Change (Vasopressin V1; [11]): 15.5
- % Inhibition (Vasopressin V1; [12]): 69%
- Average Change (Vasopressin V1; [12]): 11.5
- % Inhibition (Vasopressin V1; [13]): 64%
- Average Change (Vasopressin V1; [13]): 13.5
- % Inhibition (Vasopressin V1; [14]): 59%
- Average Change (Vasopressin V1; [14]): 15
- % Inhibition (Vasopressin V1; [15]): 54%
- Average Change (Vasopressin V1; [15]): 17
- IC50 (Rat Hepatic V1 Receptors): 0.188 µM
- IC50 [1]: 0.059 µM

Compound: O=C(c1ccc(NS(=O)(=O)c2ccccc2Cl)cc1)N1Cc2cccn2Cc2ccccc21 [Example 488, 10-[4-[[(2-Chlorophenyl)sulfonyl]amino]benzoyl]-10,11-dihydro-5H-pyrrolo[2,1-c][1,4]benzodiazepine]
- Max. % Inhibition (Vasopressin V1; 30 mg/kg i.v.): 43%
- Time (of max. % inhibition) (Vasopressin V1; 30 mg/kg i.v.): 60 min
- inhibition at 10 µM (Rat Hepatic V1 Receptors; 2 h, 10 μM, rat): 96%
- inhibition at 10 µM ([1]; 10 μM, rat): 87%

Compound: O=C(Nc1ccc(C(=O)N2Cc3cccn3Cc3ccccc32)cc1)C1CCCO1 (stereo not shown) [Example 600, N-[4-(5H-Pyrrolo[2,1-c][1,4]benzodiazepin-10(11H)-ylcarbonyl)phenyl]tetrahydrofurane-2-carboxamide]
- Max. % Inhibition (Vasopressin V1; 30 mg/kg i.v.): 78%
- Time (of max. % inhibition) (Vasopressin V1; 30 mg/kg i.v.): 60 min
- IC50 (Rat Hepatic V1 Receptors): 0.42 µM
- IC50 [1]: 0.74 µM
